“Also recorded” adds a separate entry of the source.
Key:
[1] = test system: T cells, B cells, plasma cells and macrophages in allograft kidneys; conditions: 12 weeks after transplantation
Description: Recipients with phosphate buffered saline alone were considered as the vehicle control. At 4, 8, 12 and 16 weeks, organs were harvested and divided into two parts, which were fixed in paraffin or snap-frozen in N2 and stored at −80° C. Peripheral blood mononuclear cells (PBMCs) were separated from the rat peripheral blood to be used in flow cytometry.
Paraffin-embedded sections (4 m) were incubated with primary antibodies against anti-phospho-BTK (1:100; Santa Cruz, USA), C4d (1:200, BioLegend, USA) CD3 (1:200, BioLegend, USA), CD4 (1:200, BioLegend, USA), CD8 (1:200, BioLegend, USA), CD19 (1:200, Bioss, China), CD138 (1:100, Abcam) and CD68 (1:100, Abcam) overnight at 4° C. in a humidified chamber. The appropriate isotype-matched IgG was used as the negative control. […] Quantitative analysis of positive cells (T cells, B cells, plasma cell and macrophages) and IgG positive area was analyzed by using Image-Pro Plus (Media Cybernetics, Rockville, MD). Quantitative analysis of C4d positive PTC was performed according to outcomes of two independent pathologists blinded to the experimental design.

[2] = test system: C4d and IgG deposition in allograft kidney; assay: Immunofluorescence staining of C4d and IgG deposition in allograft kidney; format: in vivo, Lewis rats; conditions: 2 mg/kg
Description: (§1) Left kidney transplantation was performed between male F344 and Lewis rats [Vogelbacher R, et al. Nephrology, dialysis, transplantation: official publication of the European Dialysis and Transplant Association—European Renal Association. 2010; 25: 3764-73.]. The average time of cold ischemia time and warm ischemia time was 25 and 40 minutes, respectively. In order to allow the production of alloantibodies, no immunosuppressive agents were used within the first 2 weeks after kidney transplantation.

[3] = test system: TNF-α, TGF-β, IL-17A, IL-35, IL-10; assay: ELISA of rat serum cytokines; format: in vivo; conditions: 12 weeks after kidney transplantation, allogeneic recipients vs vehicle
Description: The levels of rat serum TNF-α, TGF-β, IL-17A, IL-35, IL-10 were quantified by rat TNF-α ELISA kit (MUTISCIENCES; China), rat TGF-β ELISA kit (MUTISCIENCES; China), rat IL-35 ELISA kit (MUTISCIENCES; China), rat IL-17A ELISA kit (MUTISCIENCES; China) and rat IL-10 ELISA kit (MUTISCIENCES; China), respectively. The assays were performed as described in the manufacturer's instructions.
At 12 weeks after kidney transplantation, serum isolated from rat peripheral blood was used to detect the concentration of inflammatory cytokines.

[4] = Renal function assessment (blood creatinine and urea nitrogen) after resection of native right kidney; format: in vivo, Lewis rats; conditions: allogeneic recipients, right kidney resected 10 days after transplantation, vs vehicle
Description: Concentrations of rat blood creatinine and urea nitrogen were tested by instructions of manufacturer of the kits (JianCheng, China).
(§2) After the resection of right kidney, the blood concentration of creatinine and urea nitrogen continued to deteriorate and reach the summit at 12 weeks after transplantation.

renal allografts = assay: Histological examination of renal allografts (H&E, PAS, Masson staining) for severity of CAMR; format: in vivo, Lewis rats
Description: Left kidney transplantation was performed between male F344 and Lewis rats [Vogelbacher R, et al. Nephrology, dialysis, transplantation: official publication of the European Dialysis and Transplant Association—European Renal Association. 2010; 25: 3764-73.]. […] In order to allow the production of alloantibodies, no immunosuppressive agents were used within the first 2 weeks after kidney transplantation. […] Histological analysis was performed by using H&E, PAS and Masson staining. H&E, PAS and Masson trichome staining were performed as detailed elsewhere[Wang Z, et al. Journal of cellular and molecular medicine. 2017; 21: 2359-69.], which was used to evaluate the severity of CAMR. The diagnostic criteria of CAMR was according to Banff 2017 criteria. Characteristics of CAMR were defined as arterial intimal fibrosis, positive C4d staining in PTC and DSA. Measurement of arteriosclerosis caused by intimal fibrosis was performed for the areas surrounded by the luminal surface and internal elastic lamina of each vessel. The area determined by the internal elastic lamina subtraction of the internal elastic lamina to the luminal area was considered as the intimal area. Quantitative analysis the morphometric change of the kidney sections was performed according to results of two pathologists blinded to the experimental design independently.

[5] = test system: T cells, B cells and plasma cells in peripheral blood; assay: Flow cytometry of T cells, B cells and plasma cells in rat peripheral blood; format: in vivo; conditions: 8 weeks after kidney transplantation
Description: PBMCs were doubly incubated with FITC-conjugated anti-CD45R (2.5 μg/10^6 cells; eBioscience, Thermo Fisher Scientific, USA) and APC-conjugated anti-CD19 (2 μg/10^6 cells; Bioss, China), FITC-conjugated anti-CD45R (2.5 μg/10^6 cells; eBioscience, Thermo Fisher Scientific, USA) and Alexa Fluor 647 (conjugated anti-CD138 (0.1 μg/10^6 cells; Abcam, USA), APC-conjugated anti-CD3 (3 μg/10^6 cells; BioLegend, USA) and FITC-conjugated anti-CD4 (0.5 μg/10^6 cells; BioLegend, USA) as well as APC-conjugated anti-CD3 (3 μg/10^6 cells; BioLegend, USA) and Percp-eFluor710-conjugated anti-CD8 (0.3 μg/10^6 cells; BioLegend, USA), respectively. The percentages of CD45R^+CD19^+B cells, CD45R^−CD138^+ plasma cells, and CD3^+CD4^+ and CD3^+CD8^+ T cells were determined by flow cytometry (BD Accuri C6, BD Biosciences).
In order to investigate the immune state of syngenetic and allogenic rats, flow cytometry was used to test the amounts of T cells, B cells, and plasma cells.

[6] = Long-term survival of allogeneic kidney transplant recipients; format: in vivo, Lewis rats; conditions: right kidney resected 10 days after transplantation, vs vehicle, log-rank P<0.05
Excerpt: as §2

[7] = test system: donor specific alloantibody (DSA); assay: Donor specific alloantibody (DSA) analysis by flow cytometry; format: in vivo, Lewis rats; conditions: allogeneic recipients, vs vehicle
Description: as §1
Spleen lymphocytes of normal F344 rats were extracted using lymphocyte separation medium. Serum samples of allogeneic rats were incubated with spleen lymphocytes at room temperature for 30 minutes. Spleen lymphocytes were washed for three times and then incubated with a fluorescein isothiocyanate (FITC)-labeled anti-rat IgG antibody (BD Biosciences) at room temperature for 30 min. Mean fluorescence intensity (MFI) was determined in order to assess DSA levels by flow cytometry (Beckman DxFLEX, Beckman, Brea, CA) [Zhao D, et al. American journal of transplantation: official journal of the American Society of Transplantation and the American Society of Transplant Surgeons. 2018; 18: 1083-95; Liao T, et al. Frontiers in immunology. […]

[8] = after treatment for 10 weeks, 2 mg/kg, vs allograft kidneys

C=CC(=O)N1CCC([C@@H]2CCNc3c(C(N)=O)c(-c4ccc(Oc5ccccc5)cc4)nn32)CC1 [Compound 1, (S)-7-(1-acryloylpiperidin-4-yl)-2-(4-phenoxyphenyl)-4,5,6,7-tetrahydropyrazolo-[1,5-a]pyrimidine-3-carboxamide]
infiltration of B cells in allograft kidney [1]: remarkably reduced; also recorded: significantly reduced
infiltration of T cells in allograft kidney [1]: remarkably reduced; also recorded: significantly reduced
infiltration of macrophages in allograft kidney [1]: remarkably reduced; also recorded: decrease
infiltration of plasma cells in allograft kidney [1]: significantly reduced
deposition of C4d in peritubular capillaries (PTC) ([2]; allograft kidney): dramatically reduced
positive (lesion) area of IgG ([2]; allograft kidneys after treatment, almost 30% without treatment): less than 10%
secretion of IL-10 (serum) [3]: further increased
secretion of IL-35 (serum) [3]: further increased
secretion of TGF-β (serum) [3]: further increased
serum level of IL-17A [3]: reduce; also recorded: effectively decreased
serum level of TNF-α [3]: reduce; also recorded: effectively decreased
blood creatinine [4]: remarkably inhibited the increases; also recorded: relatively low levels
blood urea nitrogen [4]: remarkably inhibited the increases; also recorded: relatively low levels
lesion area of interstitial fibrosis (PAS and Masson staining) (renal allografts; [8]): significantly ameliorated
lesion area of tubular atrophy (PAS and Masson staining) (renal allografts; [8]): significantly ameliorated
glomerular sclerosis (H&E staining) (renal allografts; allogeneic recipients, 2 mg/kg, vs vehicle): significantly ameliorated
CAMR (fibrous intimal thickening in arteries, C4d deposition in PTC, increase of DSA) (renal allografts; allograft kidney, treatment from second week after transplantation): significantly alleviated
effect on T cells (CD3+CD4+, CD3+CD8+) in peripheral blood ([5]; 2 mg/kg): sight effect; also recorded: slight effects
elevation of CD19+CD45R+ B cells in peripheral blood ([5]; 2 mg/kg for 6 weeks): significantly inhibited increases; also recorded: significantly suppressed
elevation of plasma cells in peripheral blood ([5]; 2 mg/kg for 6 weeks): significantly inhibited increases; also recorded: significantly suppressed
survival rate of allogeneic recipients [6]: significantly increased; also recorded: higher
production of DSA ([7]; treatment from second week after transplantation, 8, 12, 16 weeks): significantly reduced; also recorded: prevented further production
level of DSA ([7]; until end of treatment at 16 weeks): relatively low level

From patent US20240139195A1, “METHODS OF TREATING CHRONIC ACTIVE ANTIBODY-MEDIATED REJECTION USING BTK INHIBITORS” (BeiGene Switzerland GmbH, priority 2021, published 2024)
